Measurements reported in patent US5457097A, “Androst-4-eno[4,5-b]pyrrole derivatives” (Farmitalia Carlo Erba S.r.l., priority 1992, dated 1995).

Molecular target: T1, human placental aromatase (Homo sapiens, UniProt P11511)
T1 construct: utilizes the human placental microsomal fraction as enzyme source; from tissue; host or cells: human placenta, microsomal fraction
T1 sequence (P11511 1-503): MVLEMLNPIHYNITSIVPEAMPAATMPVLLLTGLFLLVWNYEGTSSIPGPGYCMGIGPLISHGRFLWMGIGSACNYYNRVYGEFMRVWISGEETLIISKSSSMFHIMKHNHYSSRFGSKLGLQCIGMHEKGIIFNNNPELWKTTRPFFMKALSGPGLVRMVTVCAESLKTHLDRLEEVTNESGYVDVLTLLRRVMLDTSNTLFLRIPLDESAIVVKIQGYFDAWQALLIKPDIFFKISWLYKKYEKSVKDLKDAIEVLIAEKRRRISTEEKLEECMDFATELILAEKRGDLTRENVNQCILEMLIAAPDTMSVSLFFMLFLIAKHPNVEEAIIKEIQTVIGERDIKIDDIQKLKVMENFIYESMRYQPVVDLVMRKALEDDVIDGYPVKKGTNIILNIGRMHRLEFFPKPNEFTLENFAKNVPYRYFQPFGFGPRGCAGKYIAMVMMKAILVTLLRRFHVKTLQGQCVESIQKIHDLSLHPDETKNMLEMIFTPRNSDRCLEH
Assay: in vitro aromatase inhibition test (Thompson and Siiteri), 3H2O release from [1β-3H]androstenedione
Type: biochemical
Details: human placental microsomal fraction; [1β-3H]androstenedione 50 nM, NADPH, 15 min incubation at 37° C.; read-out: concentration producing 50% inhibition of human placental aromatase (IC50)
Procedure: The concentration of each compound required to reduce control aromatase activity by 50% (IC50) was determined by plotting % inhibition versus log of inhibitor concentration.

C[C@]12C=CC(=O)c3[nH]cc(c31)C[C@@H]1[C@@H]2CC[C@]2(C)C(=O)CC[C@@H]12 [3,17-dioxo-1'H-androsta-1,4-dieno[4,5-b]pyrrole]
IC50: 120 nM
